ChEMBL document CHEMBL1139236, “Introduction of non-natural amino acid residues into the substrate-specific P1 position of trypsin inhibitor SFTI-1 yields potent chymotrypsin and cathepsin G inhibitors” (Bioorg Med Chem, 2009)
Bridge positions count the residues as written; N and C are the ends. Square brackets hold non-standard residues; d marks the D form. Peptide text beside a SMILES is read from it. Phe(4-NO2) = N[C@@H](Cc1ccc([N+](=O)[O-])cc1)C(=O)O; Phe(4-guanidino) = N=C(N)Nc1ccc(C[C@H](N)C(=O)O)cc1; Phe(4-NH2) = Nc1ccc(C[C@H](N)C(=O)O)cc1; Phe(4-F) = N[C@@H](Cc1ccc(F)cc1)C(=O)O; Phe(4-Me) = Cc1ccc(C[C@H](N)C(=O)O)cc1; 4Pal = N[C@@H](Cc1ccncc1)C(=O)O

Columns and labels:
[1] = biological target: T1, Cathepsin G (Homo sapiens) (UniProt P08311); test: Inhibition of cathepsin G assessed as association equilibrium constant
T1 sequence (whole entry): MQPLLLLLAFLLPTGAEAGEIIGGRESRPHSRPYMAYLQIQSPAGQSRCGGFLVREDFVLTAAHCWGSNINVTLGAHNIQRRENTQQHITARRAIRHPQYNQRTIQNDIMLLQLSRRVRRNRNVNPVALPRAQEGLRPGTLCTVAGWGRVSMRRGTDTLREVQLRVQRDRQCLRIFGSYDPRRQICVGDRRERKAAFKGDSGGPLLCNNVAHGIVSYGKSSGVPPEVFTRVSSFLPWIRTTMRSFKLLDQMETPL

[2] = biological target: T2, Cathepsin G (Homo sapiens, UniProt P08311); test: Inhibition of cathepsin G
T2 sequence (P08311 whole entry): T1 sequence (whole entry)

[3] = biological target: T1, Cathepsin G (Homo sapiens); test: Inhibition of cathepsin G assessed as association equilibrium constant relative to [Phe5]SFTI-1
[4] = biological target: Chymotrypsinogen A (Bos taurus) (UniProt P00766); test: Inhibition of bovine alpha-chymotrypsin assessed as association equilibrium constant
[5] = biological target: Chymotrypsinogen A (Bos taurus) (UniProt P00766); test: Inhibition of bovine alpha-chymotrypsin assessed as association equilibrium constant relative to [Phe5]SFTI-1
[6] = system: Serum; test: Stability in human serum at 2 mg/mL up to 24 hrs; assay type: ADME, cell-free

| SMILES | Ka [1] | Ki [2] [nM] | Ratio [3] | Ka [4] | Ratio [5] | Stability [6] |
| --- | --- | --- | --- | --- | --- | --- |
| CC[C@H](C)[C@@H]1NC(=O)[C@@H]2CCCN2C(=O)[C@@H]2CCCN2C(=O)[C@H]([C@@H](C)CC)NC(=O)[C@H](CO)NC(=O)[C@H](CCCCN)NC(=O)[C@H]([C@@H](C)O)NC(=O)[C@@H]2CSSC[C@H](NC1=O)C(=O)N[C@@H](Cc1ccccc1)C(=O)N1CCC[C@H]1C(=O)N[C@@H](CC(=O)O)C(=O)NCC(=O)N[C@@H](CCCNC(=N)N)C(=O)N2 | 5.7 ×10⁶ /M | 0.15 | 1.54 | 5.2 ×10⁶ /M | – | – |
| CC[C@H](C)[C@@H]1NC(=O)[C@@H]2CCCN2C(=O)[C@@H]2CCCN2C(=O)[C@H]([C@@H](C)CC)NC(=O)[C@H](CO)NC(=O)[C@H](CCCCN)NC(=O)[C@H]([C@@H](C)O)NC(=O)[C@@H](NC(=O)[C@H](CCCNC(=N)N)NC(=O)CN)CSSC[C@@H](C(=O)N[C@@H](Cc2ccccc2)C(=O)N2CCC[C@H]2C(=O)N[C@@H](CC(=O)O)C(=O)O)NC1=O | – | – | – | 5 ×10⁶ /M | – | – |
| CC[C@H](C)[C@@H]1NC(=O)[C@@H]2CCCN2C(=O)[C@@H]2CCCN2C(=O)[C@H]([C@@H](C)CC)NC(=O)[C@H](CO)NC(=O)[C@H](Cc2ccccc2)NC(=O)[C@H]([C@@H](C)O)NC(=O)[C@@H](NC(=O)[C@H](CCCNC(=N)N)NC(=O)CN)CSSC[C@@H](C(=O)N[C@@H](Cc2ccccc2)C(=O)N2CCC[C@H]2C(=O)N[C@@H](CC(=O)O)C(=O)O)NC1=O (H-GRCTFSIPPICFPD-OH; disulfide 3-11) | 3.7 ×10⁶ /M | – | – | 2 ×10⁹ /M | – | – |
| CC[C@H](C)[C@@H]1NC(=O)[C@@H]2CCCN2C(=O)[C@@H]2CCCN2C(=O)[C@H]([C@@H](C)CC)NC(=O)[C@H](CO)NC(=O)[C@H](Cc2ccncc2)NC(=O)[C@H]([C@@H](C)O)NC(=O)[C@@H](NC(=O)[C@H](CCCNC(=N)N)NC(=O)CN)CSSC[C@@H](C(=O)N[C@@H](Cc2ccccc2)C(=O)N2CCC[C@H]2C(=O)N[C@@H](CC(=O)O)C(=O)O)NC1=O (H-GRCT[4Pal]SIPPICFPD-OH; disulfide 3-11) | < 1 ×10⁵ /M | – | – | 1.1 ×10¹⁰ /M | 5.5 | – |
| CC[C@H](C)[C@@H]1NC(=O)[C@@H]2CCCN2C(=O)[C@@H]2CCCN2C(=O)[C@H]([C@@H](C)CC)NC(=O)[C@H](CO)NC(=O)[C@H](Cc2ccc(NC(=N)N)cc2)NC(=O)[C@H]([C@@H](C)O)NC(=O)[C@@H](NC(=O)[C@H](CCCNC(=N)N)NC(=O)CN)CSSC[C@@H](C(=O)N[C@@H](Cc2ccccc2)C(=O)N2CCC[C@H]2C(=O)N[C@@H](CC(=O)O)C(=O)O)NC1=O (H-GRCT[Phe(4-guanidino)]SIPPICFPD-OH; disulfide 3-11) | 8.1 ×10⁷ /M | – | 2.19 | 1.8 ×10⁸ /M | 0.09 | Stable |

Continued, values first:

| Ka [1] | Ki [2] [nM] | Ratio [3] | Ka [4] | Ratio [5] | Stability [6] | SMILES |
| --- | --- | --- | --- | --- | --- | --- |
| < 1 ×10⁵ /M | – | – | 1.9 ×10¹⁰ /M | 9.5 | – | CC[C@H](C)[C@@H]1NC(=O)[C@@H]2CCCN2C(=O)[C@@H]2CCCN2C(=O)[C@H]([C@@H](C)CC)NC(=O)[C@H](CO)NC(=O)[C@H](Cc2ccc(O)cc2)NC(=O)[C@H]([C@@H](C)O)NC(=O)[C@@H](NC(=O)[C@H](CCCNC(=N)N)NC(=O)CN)CSSC[C@@H](C(=O)N[C@@H](Cc2ccccc2)C(=O)N2CCC[C@H]2C(=O)N[C@@H](CC(=O)O)C(=O)O)NC1=O (H-GRCTYSIPPICFPD-OH; disulfide 3-11) |
| 3.8 ×10⁶ /M | – | 1.02 | 3 ×10¹⁰ /M | 15 | – | CC[C@H](C)[C@@H]1NC(=O)[C@@H]2CCCN2C(=O)[C@@H]2CCCN2C(=O)[C@H]([C@@H](C)CC)NC(=O)[C@H](CO)NC(=O)[C@H](Cc2ccc(F)cc2)NC(=O)[C@H]([C@@H](C)O)NC(=O)[C@@H](NC(=O)[C@H](CCCNC(=N)N)NC(=O)CN)CSSC[C@@H](C(=O)N[C@@H](Cc2ccccc2)C(=O)N2CCC[C@H]2C(=O)N[C@@H](CC(=O)O)C(=O)O)NC1=O (H-GRCT[Phe(4-F)]SIPPICFPD-OH; disulfide 3-11) |
| 2.8 ×10⁶ /M | – | 0.76 | 2.5 ×10¹⁰ /M | 12.5 | – | CC[C@H](C)[C@@H]1NC(=O)[C@@H]2CCCN2C(=O)[C@@H]2CCCN2C(=O)[C@H]([C@@H](C)CC)NC(=O)[C@H](CO)NC(=O)[C@H](Cc2ccc(C)cc2)NC(=O)[C@H]([C@@H](C)O)NC(=O)[C@@H](NC(=O)[C@H](CCCNC(=N)N)NC(=O)CN)CSSC[C@@H](C(=O)N[C@@H](Cc2ccccc2)C(=O)N2CCC[C@H]2C(=O)N[C@@H](CC(=O)O)C(=O)O)NC1=O (H-GRCT[Phe(4-Me)]SIPPICFPD-OH; disulfide 3-11) |
| 3.6 ×10⁶ /M | – | 0.97 | 1.9 ×10¹⁰ /M | 9.5 | – | CC[C@H](C)[C@@H]1NC(=O)[C@@H]2CCCN2C(=O)[C@@H]2CCCN2C(=O)[C@H]([C@@H](C)CC)NC(=O)[C@H](CO)NC(=O)[C@H](Cc2ccc(N)cc2)NC(=O)[C@H]([C@@H](C)O)NC(=O)[C@@H](NC(=O)[C@H](CCCNC(=N)N)NC(=O)CN)CSSC[C@@H](C(=O)N[C@@H](Cc2ccccc2)C(=O)N2CCC[C@H]2C(=O)N[C@@H](CC(=O)O)C(=O)O)NC1=O (H-GRCT[Phe(4-NH2)]SIPPICFPD-OH; disulfide 3-11) |
| < 1 ×10⁵ /M | – | – | 2.6 ×10¹⁰ /M | 13 | – | CC[C@H](C)[C@@H]1NC(=O)[C@@H]2CCCN2C(=O)[C@@H]2CCCN2C(=O)[C@H]([C@@H](C)CC)NC(=O)[C@H](CO)NC(=O)[C@H](Cc2ccc([N+](=O)[O-])cc2)NC(=O)[C@H]([C@@H](C)O)NC(=O)[C@@H](NC(=O)[C@H](CCCNC(=N)N)NC(=O)CN)CSSC[C@@H](C(=O)N[C@@H](Cc2ccccc2)C(=O)N2CCC[C@H]2C(=O)N[C@@H](CC(=O)O)C(=O)O)NC1=O (H-GRCT[Phe(4-NO2)]SIPPICFPD-OH; disulfide 3-11) |
